Square brackets hold non-standard residues; d marks the D form. Peptide text beside a SMILES is read from it. * marks the point of attachment. ξ: configuration not given here. Myristoyl = CCCCCCCCCCCCCC(=O)*; dThr(3ξ) = CC(O)[C@@H](N)C(=O)O; Ile(3ξ) = CCC(C)[C@H](N)C(=O)O
Assays:
[1] = system: hippocampal CA3 and CA1 cells from acute slices; assay: fEPSP input-output curve (basal synaptic transmission) in acute hippocampal slices exposed to protofibrillar Aβ42; format: cell-based, mice; details: for basal synaptic transmission in the absence of Aβ treatment: peptide alone; for Aβ-induced synaptic depression: slices preincubated with peptide 1 hour before synthetic protofibrillar Aβ
Method: Mice were anesthetized with sodium pentothal (20 mg/kg ip) and decapitated. The brain was rapidly removed to ice-cold, oxygenated, dissection solution. Coronal slices (300 μm) were made with a vibratome (LEICA VT1200S) and slices were moved to a recovery chamber containing aCSF at room temperature for at least 1.5 hour before recording.
(§1) A concentric bipolar platinum-iridium stimulation electrode and a low-resistance glass recording microelectrode filled with aCSF (3-4 MΩ resistance) were placed in CA1 stratum radiatum to record the extracellular field excitatory postsynaptic potentials (fEPSPs). For each slice, an input-output curve was recorded to compare basal synaptic transmission at different conditions. This curve was also used to set the baseline fEPSP at ≈30% (for LTP experiments) or ≈50% (for LTD experiments) of maximal slope. Baseline stimulation was delivered every 15 seconds (0.01 ms duration pulses) for at least 20 minutes before beginning the experiment to ensure stability of the response. LTP was induced by using θ-burst stimulation (4 pulses at 100 Hz, with the bursts repeated at 5 Hz and each tetanus including three 10-burst trains separated by 15 seconds). LTD was induced using 900 pulses at 1 Hz. Responses were recorded for 1 hour after induction of LTP or LTD.
Dissection solution (employed for slicing) composition: 10 mM D-glucose, 4 mM KCl, 26 mM NaHCO3, 233.7 mM sucrose, 5 mM MgCl2, 1:1000 Phenol Red. Artificial CSF (employed for recovery and recording) composition: 119 mM NaCl, 2.5 mM KCl, 1 mM NaH2PO4, 11 mM glucose, 1.2 mM MgCl2, 2.5 mM CaCl2. Osmolarity was adjusted to […].
For the first approach, protofibrillar Aβ was prepared by promoting aggregation under high-salt conditions (258 μM Aβ42, room temperature incubation (Jan, et al. (2010) Nat. Protoc. 5:1186-1209). The kinetics of Aβ42 aggregation were followed by thioflavin T fluorescence and SDS-PAGE western blot analysis with the N-terminal anti-Aβ antibody 6E10. Also, the heterogeneous nature of these Aβ42 assemblies was evidenced by electron microscopy. Synaptic function was assessed by electrophysiological recordings of field excitatory postsynaptic potential (fEPSPs) between hippocampal CA3 and CA1 cells from acute slices prepared from 5-month-old mice. The results indicated a ≈60% decrease in the magnitude of synaptic transmission (input-output curve) when slices were incubated for 2 hours in aCSF containing pathogenic protofibrillar Aβ42 species (1 μM). This decrease in the basal synaptic transmission was prevented when Aβ was added to slices that were preincubated with the PTEN inhibitor (50 nM VO-OHpic) for 1 hour (VO-OHpic and Aβ were also present in the perfusion solution during electrophysiological recordings). VO-OHpic alone had no effect on basal synaptic transmission. […] The potency and specificity of this inhibitor have been documented previously (Rosivatz, et al. (2006) ACS Chem. Biol. 1:780-790).
The effect of these peptides on Aβ-treated neurons was subsequently tested.

[2] = system: acute mice slices; assay: LTD of fEPSPs in acute hippocampal slices; format: cell-based; details: peptide 10 μM, 1-2.5 hours incubation
Method: as §1
It was posited that the PTEN-PDZ peptide would saturate PDZ interaction sites of PTEN, consequently preventing anchoring of PTEN to PDZ proteins, and in this manner it would prevent LTD.

[3] = system: APP/PS1 mice; assay: Novel object location task after i.c.v. infusion by osmotic minipump; format: in vivo, mouse; details: APP/PS1 mice, peptide 2 mM in pump, i.c.v. 3-4 weeks; p=0.027 vs vehicle-infused APP/PS1; recognition index similar to wild-type
Method: APP/PS1 and wild-type mice were anesthetized with isofluorane, and i.c.v. delivery cannulas (brain alzet kit III) were implanted with a stereotaxic frame (KOPF Instruments) at the following coordinates according to the bregma: AP, −0.5 mm; ML, 1 mm; and DV, −2.2 mm. Osmotic minipumps (Alzet) were filled with artificial cerebrospinal fluid (aCSF) with or without PTEN inhibitor VO-OHpic (2.5 μM) and equilibrated in 0.9% NaCl at 37° C. for 48 hours. They were attached to the i.c.v. cannula tubing and subcutaneously implanted at the back. After 21 days, behavioral testing was started as described herein. One month after implantation, mice were sacrificed and the brains were sliced stained with Nissl to verify the location of the cannula. Animal manipulation and data analysis was carried out blind with respect to genotype and treatment.
Novel-Object Location. This assay was chosen because it is not intrinsically stressful. This factor, in mice, crucially affects cognitive performance in other spatial learning paradigms (e.g., Morris water maze). The memory tests were composed of three phases—“habituation”, “sample” and “choice” trials. Mice were first habituated individually to an empty open-field box (35×35×15 high cm) for 30 minutes. A sample trial (object exposure) consisted of placing a mouse into the test box which contained two identical objects. […] A recognition index was calculated by dividing the total time spent exploring the displaced object by the total time spent exploring both objects during the test session. […]
It was posited that if early Aβ-induced cognitive impairment results from a general synaptic bias toward LTD events (Selkoe (2002) Science 298:789-791), dampening this form of synaptic plasticity might prevent cognitive decay. Therefore, it was determined whether in vivo inhibition of PTEN, a lipid phosphatase that is involved in LTD (Jurado, et al. (2010) EMBO J. 29:2827-2840), would rescue cognitive deficits in APP/PS1 mice. […]

[4] = system: APPswe/lnd-expressing neurons; assay: Paired whole-cell recording of AMPAR-mediated EPSCs in APPswe/lnd-expressing CA1 neurons of organotypic hippocampal slices; format: cell-based, rat; details: 15 nM bPV(HOpic) or 50 nM VO-OHpic during expression
Method: The effect of recombinant protein expression on synaptic transmission was evaluated by simultaneous double whole-cell recordings from pairs of nearby infected and uninfected CA1 neurons, under voltage clamp, while stimulating presynaptic Schaffer collateral fibers (under this configuration, recombinant proteins are expressed exclusively in the postsynaptic neuron).
The different versions of APP (APPwt, APPswe/lnd APPMV) and EGFP were co-expressed using an internal ribosomal entry site (IRES) construct. The EGFP-tagged versions of PTEN have been described (Jurado, et al. (2010) EMBO J. 29:2827-2840). All constructs were prepared in pSinRep5 for expression using Sindbis virus. Recombinant proteins were expressed in hippocampal CA1 pyramidal neurons from organotypic slice cultures. Organotypic hippocampal slices were prepared from postnatal day 5-7 rats and cultured during 6-8 days.
The external solution (aCSF) contained 119 mM NaCl, 2.5 mM KCl, 1 mM NaH2PO4, 11 mM glucose, 26 mM NaHCO3, 4 mM MgCl2, 4 mM CaCl2, 100 μM picrotoxin and 2 μM 2-chloroadenosine, pH 7.4, and was gassed with 95% O2 and 5% CO2. […] Bipolar stimulating electrodes were placed over Schaffer collateral fibers between 250 and 300 μm from the CA1 recorded cells, and synaptic responses were evoked with single voltage pulses (200 μs, up to 30 V). […]

[5] = biological target: T1, Aβ42 (Homo sapiens, UniProt P05067); assay: Thioflavin-T fluorescence assay of Aβ42 aggregation; format: biochemical; details: 50 nM VO-OHpic or 15 nM bPV(HOpic), 37° C.
T1 construct: Lyophilized Aβ42 peptide was purchased from Keck Facility at Yale University; purchased Keck Facility at Yale University; host or cells: synthetic peptide
T1 sequence (P05067 672-713): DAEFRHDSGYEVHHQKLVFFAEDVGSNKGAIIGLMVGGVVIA
Method: Freshly prepared Aβ42 was prepared as described for protofibrillar Aβ42. The Thioflavin-T (ThT) assay was carried out at 37° C., within a dark chamber in a 96-well plate. Each well contained 100 ng/μL of Aβ42, 20 μM ThT and 50 nM VO-OHpic or 15 nM bPV(HOpic). Fluorescence (λex=450 nm; λem=485 nm) was followed over time in a FLUOSTAR OPTIMA (BMG LabTech) fluorescence spectrophotometer. Samples were run in triplicates. […] Thus, the observed rescue of basal synaptic transmission, LTP and cognition, with VO-OHpic was not likely due to an altered aggregation state of Aβ upon PTEN inhibition.

Compound | basal synaptic transmission in the absence of Aβ treatment [1] | Aβ-induced synaptic depression [1] | Aβ-induced synaptic depression ([1]; listed as N-myristoyl-QHSQITKV) | LTD (fEPSP slope 50-60 minutes after induction) [2] | spatial learning task (novel object location, recognition index) [3] | AMPAR-mediated EPSCs in APPswe/lnd-expressing neurons relative to uninfected cells [4] | Aβ42 aggregation (ThT fluorescence) [5]
CCCCCCCCCCCCCC(=O)N[C@@H](CCC(N)=O)C(=O)N[C@H](Cc1c[nH]cn1)C(=O)N[C@@H](CO)C(=O)N[C@H](CCC(N)=O)C(=O)N[C@H](C(=O)N[C@@H](C(=O)N[C@@H](CCCCN)C(=O)N[C@@H](C(=O)O)C(C)C)C(C)O)C(C)CC (stereo partly shown) [PTEN-PDZ peptide, N-myristoyl-QHSQITKV] (Myristoyl-Q[dH]S[dQ][Ile(3ξ)][dThr(3ξ)]K[dV]-OH) | neither peptide altered basal synaptic transmission | prevented synaptic depression | blocks Aβ-induced synaptic depression | completely blocked LTD | significant improvement |  | 
O=C1C=C/C(=C(/[O-])O)N=C1.[K+].[O-][O-].[O-][O-].[O]=[V] [bPV(HOpic)] |  |  |  |  |  | no longer depressed | does not alter Aβ42 aggregation
CCCCCCCCCCCCCC(=O)N[C@@H](CO)C(=O)N[C@@H](C(=O)N[C@@H](Cc1c[nH]cn1)C(=O)N[C@@H](C(=O)N[C@H](C(=O)N[C@H](CCC(N)=O)C(=O)N[C@@H](CCCCN)C(=O)N[C@H](CCC(N)=O)C(=O)O)C(C)CC)C(C)O)C(C)C (stereo partly shown) [scrambled peptide, N-myristoyl-SVHTIQKQ] (Myristoyl-S[dV]H[dThr(3ξ)][Ile(3ξ)][dQ]K[dQ]-OH) | neither peptide altered basal synaptic transmission | did not |  | did not have any effect |  |  | 

— US20170165317A1, “METHOD FOR MITIGATING OR ALLEVIATING SYNAPTIC AND COGNITIVE DEFICITS” (Trustees of Dartmouth College, priority 2013, published 2017)
